Data on 1 molecule can be found in patent US12637459B2, “Solid state forms of Lorecivivint” (TAPI CZECH INDUSTRIES S.R.O., priority 2020, dated 2026).

A short description of data set [1]: Polymorphic stability at up to 100% relative humidity at room temperature. It counts as physicochemical.
Data set [2] in a line: Hygroscopicity of the crystalline form. The settings on record: solid state form. It counts as physicochemical.

As to `CC(C)CC(=O)Nc1cncc(-c2ccc3[nH]nc(-c4nc5c(-c6cccc(F)c6)cncc5[nH]4)c3c2)c1` [Form Q, N-[5-[3-[7-(3-fluorophenyl)-3H-imidazo[4,5-c]pyridin-2-yl]-1H-indazol-5-yl]pyridin-3-yl]-3-methylbutanamide], in data set [1], the time polymorphically stable is recorded as “at least 7 days”. Also, the hygroscopicity entry in data set [2] was “non-hygroscopic”.
